Results reported in PubChem BioAssay AID1259407 (Chemical Carcinogenesis Research Information System (CCRIS), 2018).
Activity calls are given as the source filed them. How the calls were made is not given here.

System: CCRIS mutagenicity, Ames/micronucleus/aberration tests
Test: CCRIS mutagenicity studies
[1] = Test System: AMES SALMONELLA TYPHIMURIUM, Strain/Indicator: TA98, Metabolic Activation: NONE, Method: STANDARD PLATE
[2] = Test System: AMES SALMONELLA TYPHIMURIUM, Strain/Indicator: TA100, Metabolic Activation: NONE, Method: STANDARD PLATE
[3] = Test System: AMES SALMONELLA TYPHIMURIUM, Strain/Indicator: TA1535, Metabolic Activation: NONE, Method: STANDARD PLATE
[4] = Test System: AMES SALMONELLA TYPHIMURIUM, Strain/Indicator: TA1537, Metabolic Activation: NONE, Method: STANDARD PLATE

FC(F)(F)C(F)(F)C(Cl)Cl
mutagenic call [1]: inactive; negative
mutagenic call (Test System: AMES SALMONELLA TYPHIMURIUM, Strain/Indicator: TA98, Metabolic Activation: RAT LIVER S-9, PHENOBARBITAL, 5,6-BENZOFLAVONE, Method: STANDARD PLATE): inactive; negative
mutagenic call [2]: inactive; negative
mutagenic call (Test System: AMES SALMONELLA TYPHIMURIUM, Strain/Indicator: TA100, Metabolic Activation: RAT LIVER S-9, PHENOBARBITAL, 5,6-BENZOFLAVONE, Method: STANDARD PLATE): inactive; negative
mutagenic call [3]: inactive; negative
mutagenic call (Test System: AMES SALMONELLA TYPHIMURIUM, Strain/Indicator: TA1535, Metabolic Activation: RAT LIVER S-9, PHENOBARBITAL, 5,6-BENZOFLAVONE, Method: STANDARD PLATE): inactive; negative
mutagenic call [4]: inactive; negative
mutagenic call (Test System: AMES SALMONELLA TYPHIMURIUM, Strain/Indicator: TA1537, Metabolic Activation: RAT LIVER S-9, PHENOBARBITAL, 5,6-BENZOFLAVONE, Method: STANDARD PLATE): inactive; negative
mutagenic call (Test System: ESCHERICHIA COLI, Strain/Indicator: WP2 UVR A, Metabolic Activation: NONE, Method: STANDARD PLATE): inactive; negative
mutagenic call (Test System: ESCHERICHIA COLI, Strain/Indicator: WP2 UVR A, Metabolic Activation: RAT LIVER S-9, PHENOBARBITAL, 5,6-BENZOFLAVONE, Method: STANDARD PLATE): inactive; negative
mutagenic call (Test System: UDS RAT HEPATOCYTES IN VIVO, Strain/Indicator: THYMIDINE INCORPORATION, Metabolic Activation: NONE, Method: INHALATION (6HR, NOSE-ONLY, 2-OR 16-HR HARVEST)/AUTORADIOGRAPHY): inactive; negative

C=C1CC/C=C(/C)CC[C@@H]2[C@@H]1CC2(C)C
mutagenic call (Test System: AMES SALMONELLA TYPHIMURIUM, Strain/Indicator: TA98, Metabolic Activation: HAMSTER, LIVER, S-9, AROCLOR 1254, Method: STANDARD PLATE): inactive; negative
mutagenic call [1]: inactive; negative
mutagenic call (Test System: AMES SALMONELLA TYPHIMURIUM, Strain/Indicator: TA98, Metabolic Activation: RAT, LIVER, S-9, AROCLOR 1254, Method: STANDARD PLATE): inactive; negative
mutagenic call (Test System: AMES SALMONELLA TYPHIMURIUM, Strain/Indicator: TA100, Metabolic Activation: HAMSTER, LIVER, S-9, AROCLOR 1254, Method: STANDARD PLATE): inactive; negative
mutagenic call [2]: inactive; negative
mutagenic call (Test System: AMES SALMONELLA TYPHIMURIUM, Strain/Indicator: TA100, Metabolic Activation: RAT, LIVER, S-9, AROCLOR 1254, Method: STANDARD PLATE): inactive; negative
mutagenic call (Test System: AMES SALMONELLA TYPHIMURIUM, Strain/Indicator: TA102, Metabolic Activation: HAMSTER, LIVER, S-9, AROCLOR 1254, Method: STANDARD PLATE): inactive; negative
mutagenic call (Test System: AMES SALMONELLA TYPHIMURIUM, Strain/Indicator: TA102, Metabolic Activation: NONE, Method: STANDARD PLATE): inactive; negative
mutagenic call (Test System: AMES SALMONELLA TYPHIMURIUM, Strain/Indicator: TA102, Metabolic Activation: RAT, LIVER, S-9, AROCLOR 1254, Method: STANDARD PLATE): inactive; negative
mutagenic call (Test System: AMES SALMONELLA TYPHIMURIUM, Strain/Indicator: TA1535, Metabolic Activation: HAMSTER, LIVER, S-9, AROCLOR 1254, Method: STANDARD PLATE): inactive; negative
mutagenic call [3]: inactive; negative
mutagenic call (Test System: AMES SALMONELLA TYPHIMURIUM, Strain/Indicator: TA1535, Metabolic Activation: RAT, LIVER, S-9, AROCLOR 1254, Method: STANDARD PLATE): inactive; negative
mutagenic call (Test System: AMES SALMONELLA TYPHIMURIUM, Strain/Indicator: TA1537, Metabolic Activation: HAMSTER, LIVER, S-9, AROCLOR 1254, Method: STANDARD PLATE): inactive; negative
mutagenic call [4]: inactive; negative
mutagenic call (Test System: AMES SALMONELLA TYPHIMURIUM, Strain/Indicator: TA1537, Metabolic Activation: RAT LIVER, S-9, AROCLOR 1254, Method: STANDARD PLATE): inactive; negative
mutagenic call (Test System: MOUSE LYMPHOMA, Strain/Indicator: L5178Y (TK+/TK-), Metabolic Activation: NONE, Method: SUSPENSION/PLATE): inactive; positive; reevaluation of results: negative
mutagenic call (Test System: Mouse lymphoma, Strain/Indicator: L5178Y (tk+/tk-), Metabolic Activation: Rat, Liver, S-9, Aroclor 1254, Method: Suspension/plate): equivocal
